Molecular target: human CatSper (CatSper channel, cation channel of sperm) (Homo sapiens, UniProt Q7RTX7+Q86XQ3+Q8NEC5+Q96P56)
Experiment: whole-cell patch clamp of human sperm
Assay type: cell-based
Settings: activator; 20 μM, NaDVF, pHi 7.3, room temperature

CCCCCCOC(=O)[C@]1(O)C[C@@H]2O[C@@]1(C)n1c3ccccc3c3c4c(c5c6ccccc6n2c5c31)C(=O)NC4 [KT 5720]
fold current enhancement at -80 mV: 1.48 ± 0.47 fold

From publication doi:10.1101/2020.02.10.942029v1 (biorxiv, 2020)
